For test [1], the system named is PC-3. Description: Growth inhibition of serum starved human PC3 cells. Type of test: functional.
For test [2], the target named is T1, Peptidyl-prolyl cis-trans isomerase NIMA-interacting 1 (Homo sapiens, UniProt Q13526). Briefly: Inhibition of Pin1 by PIn1 PPIase assay.
For test [3], the target named is T1, Peptidyl-prolyl cis-trans isomerase NIMA-interacting 1. Description: Binding affinity to Pin1 by isothermal calorimetry. On the technique in general: ITC needs no label: the signal is the heat of the interaction.
The target of test [4] is Peptidyl-prolyl cis-trans isomerase FKBP1A (Homo sapiens) (UniProt P62942). Briefly: Inhibition of FKBP12.
Test [5] deals with Peptidyl-prolyl cis-trans isomerase A (Homo sapiens) (UniProt P62937). Briefly: Inhibition of cyclophilin A.
In test [6] the target is T1, Peptidyl-prolyl cis-trans isomerase NIMA-interacting 1. Briefly: Inhibition of Pin1-mediated cyclin D1 expression in serum starved human PC3 cells. The class given is cell-based, PC-3.
In test [7] the test system is PC-3. Description: Inhibition of cyclin E1 expression in serum starved human PC3 cells. The class given is functional, cell-based.
In test [8] the target is T1, Peptidyl-prolyl cis-trans isomerase NIMA-interacting 1. Briefly: Inhibition of Pin1 in serum starved human PC3 cells assessed as reduction in insulin-induced p7)S6 kinase phosphorylation. Type of test: cell-based, PC-3.

The source made the active and inactive calls. The rule behind the calls is not given here. Some results are limits rather than exact numbers.

One may read the GI50 as the concentration that inhibits growth by half. High values mean lower sensitivity of the cells, low ones greater sensitivity of the cells. For orientation: IC50 means the concentration at which inhibition is half-maximal. The low end stands for higher potency, the high end for lower potency. In general, Kd refers to the equilibrium constant for the complex coming apart. A lower Kd goes with tighter binding. Broadly, the EC50 is the midpoint of the concentration-response curve.

T1 sequence (Q13526 whole entry): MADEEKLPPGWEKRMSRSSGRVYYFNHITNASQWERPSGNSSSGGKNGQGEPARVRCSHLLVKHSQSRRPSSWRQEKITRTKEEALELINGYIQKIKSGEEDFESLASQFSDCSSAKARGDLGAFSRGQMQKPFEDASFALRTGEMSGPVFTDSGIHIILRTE
Chain of Peptidyl-prolyl cis-trans isomerase A (Homo sapiens) (P62937 whole entry, looked up): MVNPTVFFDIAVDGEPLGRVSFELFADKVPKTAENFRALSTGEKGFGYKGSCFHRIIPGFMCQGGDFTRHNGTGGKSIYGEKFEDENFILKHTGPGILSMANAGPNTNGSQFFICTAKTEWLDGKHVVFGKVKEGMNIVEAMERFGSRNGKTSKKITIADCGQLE
Chain of Peptidyl-prolyl cis-trans isomerase FKBP1A (Homo sapiens) (P62942 whole entry): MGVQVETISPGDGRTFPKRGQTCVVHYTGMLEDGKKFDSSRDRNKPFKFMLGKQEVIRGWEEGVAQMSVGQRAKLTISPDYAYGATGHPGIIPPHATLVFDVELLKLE

In the test with PC-3 [1], `O=C(O)c1[nH]c(-c2ccccc2)nc1C(=O)N1CCOCC1` returned a GI50 of over 200 µM.
For `CCNC(=O)c1nc(-c2ccccc2)[nH]c1C(=O)O`, the IC50 in test [2] came to 140 µM.
Turning to `CN(CC(N)=O)C(=O)c1nc(-c2ccccc2)[nH]c1C(=O)O`, the GI50 with PC-3 [1] was over 200 µM.
In test [2], `COc1ccccc1-c1ccc(C(=O)O)o1` returned an IC50 of over 1000 µM.
`O=C(O)c1nc(-c2ccccc2)[nH]c1C(=O)N(Cc1ccccc1)Cc1ccccc1` had an IC50 in test [2] of 4 µM. This compound displayed a GI50 with PC-3 [1] of 21 µM.
The corresponding values for `CCOC(=O)CN(Cc1ccccc1)C(=O)c1nc(-c2ccccc2)[nH]c1C(=O)O` are 8 µM and over 200 µM.
`O=C(O)c1nc(-c2ccccc2)[nH]c1C(=O)O` yielded an IC50 in test [2] of 1.46 µM.
`Cc1cccc(-c2nc(C(=O)O)c(C)[nH]2)c1` had an IC50 in test [2] of 34 µM.
In turn, `O=C(O)c1nc(-c2cccc(F)c2)[nH]c1C(=O)O` came in with an IC50 in test [2] of 0.32 µM. This compound showed a Kd in test [3] of 520 nM.
In test [2], `O=C(O)c1nc(-c2ccccc2)[nH]c1C(=O)NCc1ccccc1` had an IC50 of 220 µM.
Still for that read-out and setting: next, `Cc1nc(-c2cccc(C(F)(F)F)c2)[nH]c1C(=O)O`: 23 µM.
In test [2], `NC(=O)CN(Cc1nc2ccccc2s1)C(=O)c1nc(-c2ccccc2)[nH]c1C(=O)O` returned an IC50 of 0.52 µM. In the test on PC-3 [1], the GI50 was over 80 µM.
As for `CNC(=O)c1nc(-c2ccccc2)[nH]c1C(=O)O`, the IC50 in test [2] was 80 µM. This counts as double-digit micromolar.
Still for that read-out and setting: next, `CN(CC(=O)O)C(=O)c1nc(-c2ccccc2)[nH]c1C(=O)O`: 9.4 µM.
Compound `O=C(O)c1[nH]c(-c2cccc(Cl)c2)nc1C(=O)N1CCOCC1` had a half-inhibitory concentration (IC50) in test [2] of 21 µM. The same compound yielded a GI50 with PC-3 [1] of over 200 µM.
`O=C(O)c1[nH]c(-c2cccc(Cl)c2)nc1C(=O)N(Cc1ccccc1)Cc1ccccc1` yielded an IC50 in test [2] of 1.4 µM. Also, halving of growth in the test on PC-3 [1] (GI50) required 18 µM. In test [3], the dissociation constant (Kd) stood at 1400 nM.
`O=C(O)c1[nH]c(-c2ccccc2)nc1C(=O)N(CCc1ccccc1)Cc1ccccc1` displayed an IC50 in test [2] of 0.83 µM. This compound came in with a GI50 in the test on PC-3 [1] of 13 µM. The inhibition entry (in test [4]; in test [5]; in the test on PC-3 [7]) was “inactive” each time. The EC50 was found to be 10 µM in test [6] and 30 µM in test [8].
In test [2], `Cc1nc(-c2cccc(C#N)c2)[nH]c1C(=O)O` gave an IC50 of 19 µM. This counts as double-digit micromolar.
In turn, `CN(Cc1ccccc1)C(=O)c1nc(-c2ccccc2)[nH]c1C(=O)O` yielded an IC50 in test [2] of 31 µM. In addition, the GI50 in the test with PC-3 [1] was over 200 µM.
`COc1cccc(-c2nc(C)c(C(=O)O)[nH]2)c1` returned an IC50 in test [2] of 270 µM.
Regarding `CN(Cc1ccccc1)C(=O)c1[nH]c(-c2cccc(Cl)c2)nc1C(=O)O`, growth in the test with PC-3 [1] was halved (GI50) at 56 µM.

The values are drawn from ChEMBL document CHEMBL1268960, “Discovery of cell-active phenyl-imidazole Pin1 inhibitors by structure-guided fragment evolution” (Bioorg Med Chem Lett, 2010).
